Reference: patent publication US20090220528A1, “Stimulation of Toll-Like Receptors on T Cells” (THE TRUSTEES OF THE UNIVERISTY OF PENNSYLVANIA CNETER FOR …, priority 2005, published 2009)

Assays:
activated CD4+ T cells = test: Survival of activated CD4+ T cells treated with TLR ligands (7-AAD/annexin exclusion); format: cell-based, mouse
Procedure: All CD4^+ T cell activation was conducted in complete culture medium composed of RPMI 1640 (Life Technologies, Grand Island, N.Y.), 1.5 μM 2-ME (Sigma-Aldrich, St. Louis, Mo.), 50 μg/ml gentamicin (Life Technologies), and 10% FCS (Mediatech, Washington, D.C.) at 37° C. in 5% CO2. Purified CD4^+ T cells from either BALB/c, MyD88^−/−, or MyD88^+/+ wild-type control littermates were activated on 24-well plates (Costar, Cambridge, Mass.) coated with 1.0 μg/ml CD3ε monoclonal antibody (2C11; BD Biosciences) and 1.0 μg/ml CD28 monoclonal antibody (37.51; BD Biosciences) for 16 hours. In experiments with DO11.10 mice, 1 μg/ml of pOVA, a peptide derived from chicken albumin amino acid residues […] was added to 2×10^6/ml erythrocyte-depleted splenocyte and lymph node cell pools for 16 hours. Following pOVA-induced activation, CD4^+ T cell APC complexes were disrupted with 5 mM EDTA/PBS for 10 minutes at 25° C., washed twice in PBS, and purified with magnetic beads using the MACS CD4^+ T cell isolation kit as described elsewhere herein. Purity of activated DO11.10 CD4^+ T cells exceeded 96%. As described elsewhere herein, the remainder of the contaminants by FACS analysis were CD8^+ T cells, with APCs at <0.1% by RT-PCR.
Following activation, purified CD4^+ T cells were washed twice in PBS and replated in culture medium at 10^6/ml. Cultures were left untreated or treated with either TLR ligands and/or inhibitors for indicated times and concentrations. Following incubation, CD4^+ T cells were washed twice in PBS/2% FBS and stained with CD4-allophycocyanin monoclonal antibody and 7-aminoactinomycin D (7-AAD; BD PharMingen) or annexin (BD PharMingen) and survival was assessed by exclusion of either of these two stains. For absolute live cell counts 50,000 CD45.1^+ splenocytes labeled with anti-CD45.1-PE monoclonal antibody (A20; BD PharMingen) were also added to stained CD4^+ T cell sample FACS tubes just before FACS analysis. Live CD4^+ T cell counts were calculated by taking the ratio of the number of CD4^+CD45.1^−7-ADD^− events collected to the number CD45.1^+ events collected and multiplying by 50,000. Proliferation was measured by CFSE dye dilution as previously described (Wells et al., 1997 J. Clin. Invest. 100:3173).
TLR ligands directly promote the survival of several cell types including neutrophils, DC, and B cells (Lundqvist et al., 2002, Cancer Immunol. Immunother. 51:139; Sabroe et al., 2003, J. Immunol. 170:5268; Grillot et al., 1996, J. Exp. Med. 183:381; Grillot et al., 1996, J. Exp. Med. 183:381). Since it was observed that activated CD4^+ T cells also express TLRs and signal in response to TLR ligands, the next set of experiments were designed to assess whether TLR ligands could directly enhance survival of these cells. DO11.10 CD4^+ T cells, that encode a transgenic TCR specific for a peptide derived from chicken OVA (pOVA), were activated with pOVA-pulsed APCs for 16 hours ex vivo, purified by magnetic beads to remove all non-CD4^+ T cells, and replated in unsupplemented culture medium in the absence or presence of TLR ligands. Survival was then assessed 72 hours following activation (FIG. 3A). Poly(I:C) or CpG DNA induced increases of activated CD4^+ T cell survival from 38% to 71 and 73%, respectively.

[1] = tested on: activated DO11.10 CD4+ T cells; test: Adoptive transfer and ex vivo proliferation analysis; format: in vivo, mouse
Procedure: Five million purified DO11.10 CD4^+ T cells were activated by pOVA-pulsed APCs (1 μg/ml), purified with magnetic beads, treated with poly(I:C) (90 μg/ml), CpG DNA (30 μM), LPS (100 ng/ml), or left untreated for 16 hours, washed in PBS twice, and then adoptively transferred into BALB/c hosts. At day 30, spleen and peripheral lymph nodes were harvested and stained with anti-CD4 monoclonal antibody and the DO11.10 clonotypic monoclonal antibody KJI-26. Survival of activated DO11.10 CD4^+ T cells in each host was determined by FACS analysis and is expressed as a percent with respect to the total number of CD4^+ T cells found in either the host spleen or lymph nodes along with a mean (thick line) for each treatment group. […] [^3H]Thymidine was added to cultures for an additional 8 hour and read on a beta scintillation counter and is expressed as a mean for each treatment group ±SEM.
To address this question, DO11.10 CD4^+ T cells were first activated with pOVA-pulsed APCs, purified by magnetic beads, treated with TLR ligands for 16 hours, washed, and then adoptively transferred into congenic BALB/c hosts. Survival and ex vivo proliferative responses were assessed 30 days later (FIGS. 5A and 5B). […]

Question: poly(I:C) was tested. Which “activated CD4+ T cell survival” value (activated CD4+ T cells; 72 hours following activation, DO11.10 CD4+ T cells activated with pOVA-pulsed APCs, purified, untreated 38% (FIG. 3A)) did it give?
Answer: Its value is 71%.

Question: And the “effect on activated CD4+ T cell survival (dose response)” value (activated CD4+ T cells; FIG. 3B, purified activated CD4+ T cells)?
Answer: Its value is “dose-dependent manner”.

Question: And the “activated CD4+ T cell survival in TLR ligand-treated cultures spiked with APCs” value (activated CD4+ T cells; T cell-depleted lymph node cells and splenocytes (APC) added)?
Answer: The value was “significantly increased dose-responsive survival”.

Question: And the “increase in percentage of recovered DO11.10 CD4+ T cells in host spleen” value ([1]; day 30 after adoptive transfer into BALB/c hosts, cells treated 16 hours before transfer, vs LPS-treated or untreated cells (FIG. 5A))?
Answer: The value was about 2 fold.

Question: And the “increase in proliferative response to pOVA of splenic CD4+ T cells” value ([1]; ex vivo, day 30, vs hosts that received LPS-treated or untreated cells (FIG. 5B))?
Answer: Its value is 2 fold.
